Key:
[1] = Photobleaching experiment, 785 nm laser radiation; assay type: physicochemical; conditions: aqueous medium, 37° C., 3 sec irradiation/1 sec dark repeated for 1 h
Procedure: A further advantage of the present invention is the improved photostability of the dye with respect to the free dye in water solution. An experiment was performed in aqueous medium by the exposition of free ICG solution and the ICG loaded SLNs suspension to a 785 nm laser radiation (see FIG. 2, Example 8). The fluorescence emissions were collected by NIR fluorescent imaging system (Pearl® Impulse system by LI-COR Biosciences). […] Then, the experiment was carried out in duplicate at 37° C. irradiating both samples for 3 sec and keeping the samples in the dark for 1 sec. This sequence was repeated in continuous for 1 h.
The photobleaching experiment was performed by the exposition of free ICG aqueous solution and the ICG loaded SLNs suspension to a 785 nm laser radiation The fluorescence emissions were collected by NIR fluorescent imaging system (Pearl Impulse system by LI-COR Biosciences).
Then, the experiment was carried out in duplicate at 37° C. irradiating both samples for 3 sec and keeping the samples in the dark for 1 sec. This sequence was repeated in continuous for 1 h.

[2] = human recommended dose of 0.5 mg/kg, intravenous; cited from earlier work
[3] = tendency to aggregate; cited from earlier work
[4] = Optical properties (absorption and emission maxima, Stokes' shift); assay type: physicochemical; conditions: SLNs formulation (example 4) or H2O
Description: Additional optical features (i.e. maximum absorption and emission wavelengths, Stokes' shifts) of ICG in aqueous medium and after incorporation in the SLNs are reported in Table E.

[5] = UV-Vis spectra for J-aggregates evaluation; assay type: physicochemical; conditions: SLNs suspension up to 120 days, free ICG in aqueous solution up to 15 days
Procedure: In FIG. 4 (panel A, Example 7) there are reported the UV-Vis spectra of ICG-loaded SLNs suspension just after the formulation date and 90 and 120 days later. […] The absorbance at 800 nm is recovered at 96% with respect to the initial value. In addition, the fluorescence emission properties can be preserved by the incorporation of ICG in the SLNs over the observed period of time (data not shown).
UV-Vis spectra of ICG-loaded SLNs suspension, prepared as described in the example 4, were recorded after the end of the formulation date, 90 and 120 days later keeping the suspension at store condition. After 120 days the absorbance was recovered at 96% with respect to the initial value (FIG. 4 A).
A solution of ICG (0.14 mg/mL) was prepared in glucosate (5.5%) solution. The sample was diluted before the Uv-Vis analysis and the absorption behaviour was evaluated from 300 to 950 nm until 15 days (FIG. 4 B).

CC1(C)C(/C=C/C=C/C=C/C=C2/N(CCCCS(=O)(=O)[O-])c3ccc4ccccc4c3C2(C)C)=[N+](CCCCS(=O)(=O)[O-])c2ccc3ccccc3c21.[Na+] [ICG, Indocyanine Green]
fluorescence emission remaining, of the initial emission fluorescence efficiency [1]: slightly above zero
blood half-time [2]: around 3.0 minutes
time within which aqueous solution must be used [3]: ≤ 6 h
A max wavelength (nm) [4]: 780 nm
Fluor. Emission λmax (nm) [4]: 809 nm
Stokes' shift [4]: 29
aggregates (J-aggregates) formation [5]: can aggregate in few days
